Source: article PMC3755010 (Bioorganic & medicinal chemistry letters, 2012)

Columns and labels:
[1] = target: rat mGlu5 receptor (Rattus norvegicus, UniProt P31424); assay: Calcium mobilization assay in HEK293 cells expressing the rat mGlu5 receptor; type: cell-based; conditions: for loss in functional activity versus 6: relative to 6 (VU0357121); for improvement in potency versus 8b: relative to 8b; for EC50 (nM): calcium mobilization, HEK293 cells expressing rat mGlu5
[2] = target: T1, mGlu5 MPEP allosteric binding site (Rattus norvegicus, UniProt P31424); assay: [3H]methoxyPEPy binding
T1 sequence (P31424 21-1203): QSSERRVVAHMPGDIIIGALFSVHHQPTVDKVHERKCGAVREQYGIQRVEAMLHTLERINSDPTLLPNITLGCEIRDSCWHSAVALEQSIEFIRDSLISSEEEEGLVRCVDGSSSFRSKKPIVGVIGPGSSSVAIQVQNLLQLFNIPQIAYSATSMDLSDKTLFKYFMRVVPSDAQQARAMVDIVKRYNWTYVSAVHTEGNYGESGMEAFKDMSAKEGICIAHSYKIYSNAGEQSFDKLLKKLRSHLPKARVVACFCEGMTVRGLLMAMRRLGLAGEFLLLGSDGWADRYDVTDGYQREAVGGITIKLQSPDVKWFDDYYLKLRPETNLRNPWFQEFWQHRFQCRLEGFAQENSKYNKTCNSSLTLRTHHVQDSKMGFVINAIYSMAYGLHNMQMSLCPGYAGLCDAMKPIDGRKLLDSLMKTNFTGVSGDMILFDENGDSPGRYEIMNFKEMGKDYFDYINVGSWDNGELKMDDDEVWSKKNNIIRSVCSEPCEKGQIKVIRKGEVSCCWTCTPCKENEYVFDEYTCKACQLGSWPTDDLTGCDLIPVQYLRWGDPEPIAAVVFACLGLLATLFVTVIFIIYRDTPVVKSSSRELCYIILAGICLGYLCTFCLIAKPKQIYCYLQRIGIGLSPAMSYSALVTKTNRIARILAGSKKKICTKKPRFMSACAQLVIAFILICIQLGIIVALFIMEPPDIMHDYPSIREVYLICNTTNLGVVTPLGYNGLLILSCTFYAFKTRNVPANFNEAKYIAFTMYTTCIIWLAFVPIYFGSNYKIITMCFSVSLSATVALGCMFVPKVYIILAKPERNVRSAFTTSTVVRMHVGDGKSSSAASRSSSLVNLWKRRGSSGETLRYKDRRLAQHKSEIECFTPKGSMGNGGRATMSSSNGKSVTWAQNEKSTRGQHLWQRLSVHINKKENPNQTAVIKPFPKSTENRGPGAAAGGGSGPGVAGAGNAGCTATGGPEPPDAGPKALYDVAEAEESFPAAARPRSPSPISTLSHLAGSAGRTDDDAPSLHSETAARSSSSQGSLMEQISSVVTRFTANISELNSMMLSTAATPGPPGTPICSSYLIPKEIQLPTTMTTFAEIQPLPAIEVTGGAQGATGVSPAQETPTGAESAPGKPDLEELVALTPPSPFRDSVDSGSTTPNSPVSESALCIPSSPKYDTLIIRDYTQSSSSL

[3] = In vitro oxidative metabolism; type: in vitro ADME, rat
[4] = Reversal of amphetamine-induced hyperlocomotion in rats; type: in vivo, rat; conditions: rat, brain (unbound), po, 100 mg/kg
[5] = test system: amphetamine-induced hyperlocomotion; assay: as above; type: in vivo, rat; conditions: rats, 100 mg/kg p.o., vehicle 20% β-CD
[6] = Non-crossover in vivo pharmacokinetic studies in rats; design: species or system rat
[7] = target: human mGlu5 receptor (Homo sapiens, UniProt P41594); assay: Functional assay in lower expressing human mGlu5 receptor cell line; type: cell-based
human mGlu5 receptor, sequence (P41594 21-1212): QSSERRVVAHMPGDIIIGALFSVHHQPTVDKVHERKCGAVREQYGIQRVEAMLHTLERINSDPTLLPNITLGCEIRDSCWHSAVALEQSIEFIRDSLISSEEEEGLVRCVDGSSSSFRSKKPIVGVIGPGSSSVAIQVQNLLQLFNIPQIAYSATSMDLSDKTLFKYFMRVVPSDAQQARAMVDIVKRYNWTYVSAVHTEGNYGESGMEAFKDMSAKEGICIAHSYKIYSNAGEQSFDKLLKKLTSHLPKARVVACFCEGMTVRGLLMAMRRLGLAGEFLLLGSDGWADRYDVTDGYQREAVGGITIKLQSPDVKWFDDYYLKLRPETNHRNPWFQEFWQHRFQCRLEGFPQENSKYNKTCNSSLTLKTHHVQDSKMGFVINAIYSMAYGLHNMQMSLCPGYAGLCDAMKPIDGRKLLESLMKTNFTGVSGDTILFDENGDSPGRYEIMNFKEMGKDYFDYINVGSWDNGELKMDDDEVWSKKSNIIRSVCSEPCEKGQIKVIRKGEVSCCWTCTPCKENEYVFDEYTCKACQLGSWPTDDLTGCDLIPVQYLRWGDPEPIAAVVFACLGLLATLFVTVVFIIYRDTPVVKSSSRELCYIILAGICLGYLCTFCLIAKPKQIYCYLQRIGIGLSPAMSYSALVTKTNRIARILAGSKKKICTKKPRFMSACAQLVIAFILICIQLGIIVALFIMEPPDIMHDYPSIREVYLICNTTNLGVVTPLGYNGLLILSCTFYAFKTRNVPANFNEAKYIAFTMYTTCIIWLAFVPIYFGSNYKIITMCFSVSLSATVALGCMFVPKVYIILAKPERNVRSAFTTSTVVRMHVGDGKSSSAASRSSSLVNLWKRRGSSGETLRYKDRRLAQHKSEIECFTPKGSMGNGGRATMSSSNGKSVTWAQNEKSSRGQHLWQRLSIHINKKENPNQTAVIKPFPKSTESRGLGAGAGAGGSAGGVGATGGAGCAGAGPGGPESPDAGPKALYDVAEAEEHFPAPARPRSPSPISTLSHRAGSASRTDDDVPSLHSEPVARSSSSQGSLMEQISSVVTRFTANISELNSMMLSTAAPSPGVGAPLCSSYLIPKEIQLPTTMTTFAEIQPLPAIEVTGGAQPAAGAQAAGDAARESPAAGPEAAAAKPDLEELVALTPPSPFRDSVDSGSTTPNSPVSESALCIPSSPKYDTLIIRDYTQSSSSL

[8] = test system: mGlu5 MPEP site sensitive mutants (P654F, T780A, A809V); assay: Fold-shift of glutamate CRC at MPEP site sensitive point mutants; type: cell-based; conditions: 1 μM compound, compared to wild-type rat mGlu5
[9] = target: wild-type rat mGlu5 receptor (Rattus norvegicus, UniProt P31424); assay: Fold-shift of glutamate concentration-response curve at wild-type receptor; type: cell-based; conditions: 1 μM compound
wild-type rat mGlu5 receptor, sequence (P31424 21-1203): as the sequence (P31424 21-1203) above

[10] = target: T1, mGlu5 MPEP allosteric binding site; conditions: cited from earlier work

rat mGlu5 receptor, sequence (P31424 21-1203): as above

CCCCOc1ccc(C(=O)NC2CCCCC2)cc1 [7a]
loss in functional activity versus 6 [1]: > 15 fold

CCCCOc1ccc(C(=O)NC2CCC2)cc1 [7c]
loss in functional activity versus 6 [1]: > 15 fold

CCCCOc1ccc(C(=O)Nc2ccc(F)cc2F)cn1 [8a]
loss in functional activity versus 6 [1]: 22 fold

CCCCCOc1ccc(C(=O)NC2CCCCC2)cn1 [8d]
improvement in potency versus 8b [1]: fivefold

CCCOc1ccc(C(=O)NC2CCCCC2)cn1 [8e]
EC50 (nM) [1]: complete loss of potentiation

CCCC(C)Oc1ccc(C(=O)NC2CCCCC2)cn1 (stereo not shown) [8f]
EC50 (nM) [1]: unproductive

CCC(C)COc1ccc(C(=O)NC2CCCCC2)cn1 (stereo not shown) [8g]
improvement in potency versus 8b [1]: twofold

O=C(NC1CCCCC1)c1ccc(OCc2ccccc2)nc1 [8k]
estimated divergence of MPEP site interaction from functional activity ([2]; 21% displacement at 10 μM versus functional EC50): > 100 fold | oxidative metabolism in rat microsomal incubations ([3]; soft-spot analysis, rat microsomes): extensive oxidative metabolism

O=C(NC1CCCCC1)c1ccc(OCc2ccc(F)cc2)nc1 [8m]
loss in activity relative to 8k ([1]; relative to 8k): sevenfold

O=C(N[C@@H](C1CC1)C(F)(F)F)c1ccc(OCc2cccc(F)c2)nc1 [8u]
metabolic stability in vitro ([3]; data not shown): relatively stable metabolically in vitro

C[C@@H](NC(=O)c1ccc(OCc2cccc(F)c2)nc1)C(C)(C)C [8v]
displacement of the MPEP-site radioligand [3H]-methoxyPEPy (extent) [2]: full displacement | concentration at 90 min [4]: ~74 nM | reversal of amphetamine-induced hyperlocomotion [5]: robust effects in reversal of hyperlocomotion | clearance ([6]; rat, plasma, iv, 1 mg/kg): 13.7 mL/min/kg | first-pass effect (Ehep) ([6]; rats, snapshot oral PK, portal vein vs plasma): 0.41 | agonism activity for compound alone [7]: no detected agonism activity | effect of MPEP-site point mutations on shift of the glutamate CRC [8]: reduced the ability | shift of the glutamate CRC [9]: fivefold | increase in activity over cyclohexyl analog R-8t ([1]; high expressing rat receptor HEK cell line): twofold

C[C@@H](NC(=O)c1ccc(OCc2cccc(F)c2)cc1)C(C)(C)C [8w]
EC50 relative to 8v ([1]; direct comparator to 8v): ~ 2.5 fold

CCCCOc1ccc(C(=O)Nc2ccc(F)cc2F)cc1 [compound 6]
displacement of the MPEP-site ligand [3H]methoxyPEPy [10]: not observed to displace
